Laboratory results taken from patent publication EP0545103A1, “Insecticidal, acaricidal and molluscicidal 1-(substituted) thioalkylpyrroles” (priority 1991, dated 1993).

Experiments:
[1] = tested on: Empoasca abrupta, adult, western potato leafhopper; test: Western potato leafhopper contact test, dipped limabean leaf; type: in vivo; set-up: key: 0: no effect; 10-25% kill; 26-35% kill; 36-45% kill; 46-55% kill; 56-65% kill; 66-75% kill; 76-85% kill; 86-99% kill; 9: 100% kill
Summary of the method: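 Sieva limabean leaf dipped 3 s in compound solution (diluted in water from 10,000 ppm stock in 35% acetone), dried, and infested with about 10 adult leafhoppers on moist filter paper. Mortality counted after 2 days and scored on a rating scale.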

[2] = tested on: Empoasca abrupta, adult, western potato leafhopper; test: Western potato leafhopper systemic uptake test; type: in vivo; set-up: key: 0: no effect; 10-25% kill; 26-35% kill; 36-45% kill; 46-55% kill; 56-65% kill; 66-75% kill; 76-85% kill; 86-99% kill; 9: 100% kill; settings: 100 ppm
Summary of the method: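 Leafhopper mortality, rated on a scale, scored 2 days after about 10 adults were confined with a leaf in a moist dish. The leaf came from a cut lima bean stem that had taken up the compound emulsion (100 ppm and 10-fold dilutions) over 3 days at 27 °C.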

[3] = tested on: Aphis fabae, mixed instar, bean aphid; test: Bean aphid spray test on nasturtium; type: in vivo; set-up: key: 0: no effect; 10-25% kill; 26-35% kill; 36-45% kill; 46-55% kill; 56-65% kill; 66-75% kill; 76-85% kill; 86-99% kill; 9: 100% kill; settings: 100 ppm
Summary of the method: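 Mortality rated on a scale 2 days after treatment of aphid-infested (100-200 per plant, infested a day earlier) ~5 cm nasturtiums sprayed to complete coverage. Spray solutions: 10,000 ppm compound in 35% acetone in water, with further water dilutions.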

[4] = tested on: Heliothis virescens, 3rd instar tobacco budworm; test: Tobacco budworm 3rd instar test, dipped cotton cotyledons; type: in vivo; set-up: key: 0: no effect; 10-25% kill; 26-35% kill; 36-45% kill; 46-55% kill; 56-65% kill; 66-75% kill; 76-85% kill; 86-99% kill; 9: 100% kill; settings: mortality rating after 3 days
Summary of the method: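 Rating-scale scores of mortality and reduced feeding, taken 3 days after single third-instar larvae were caged on dried cotton cotyledon quarters. Cotyledons were pre-dipped in test solutions diluted with water from a 10,000 ppm stock in 35% acetone.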

[5] = tested on: Cercospora beticola; test: In vivo fungicidal activity, Sugarbeet Cercospora (SBC); settings: rating, averaged
Experimental: (§1) Test compounds are dissolved in acetone and diluted with deionized water containing about 0.05% TWEEN 20®, a polyoxyethylene sorbitan monolaurate surfactant manufactured by Atlas Chemical Industries, to give a concentration of 400 ppm. Subsequent dilutions are made with an 0.05% aqueous solution of TWEEN 20®.
(§2) Host plants are sprayed with test solution, dried and inoculated with fungi. When disease symptom development is optimal, the plants are rated for disease control according to the rating scale shown below. Each test contains inoculated treated plants, inoculated untreated plants and a reference standard.
(§3) When more than one test is run, the data are averaged.

[6] = tested on: Venturia inaequalis; test: In vivo fungicidal activity, Apple Scab (AS); settings: rate 400 ppm, host plants sprayed then inoculated, rating, averaged
Experimental: as §1, §2, §3

[7] = tested on: Rhizoctonia solani; test: In vitro fungicidal activity, mycelial growth inhibition on agar (Rhiz); type: cell-based; settings: 48 h, two days
Experimental: (§4) Test compounds are dissolved in acetone, diluted with sterile, deionized water and mixed with a partially cooled, autoclaved, chemically defined agar medium. This mixture is poured into several 100mm x 15mm sterile plastic plates and allowed to solidify. The surface of each plate is inoculated with a single disc of mycelium and agar cut with an 8mm diameter cork borer from actively growing cultures of assay fungi on a chemically defined agar medium. The plates are incubated at room temperature. Growth inhibition is determined when the mycelial growth on unamended control media has reached the edge of the petri plates. The time interval varies depending on the growth rate of the fungus; two days for Pythium ultimum (pyth) and Rhizoctonia solani (Rhiz) , five days for Botrytis cinerea (Betry) and 7-10 days for Pseudocercosporella herpotrichoides (Pseudo). Each colony diameter is measured and compared with the untreated control and the percent inhibition is calculated as follows: [formula] Each test includes a solvent blank consisting of the formulation without a test compound in addition to the untreated control.
(§5) Assay fungi include the plant pathogens, Pythium ultimum (Pyth) and Rhizoctonia solani (Rhiz).
(§6) When more than one test is run the data are averaged.

[8] = tested on: Erysiphe graminis, tritici; test: In vivo fungicidal activity, Wheat Powdery Mildew (WPM); settings: rate 400 ppm, rating, averaged
Experimental: as §1, §2, §3

[9] = tested on: Pythium ultimum; test: In vitro fungicidal activity, mycelial growth inhibition on agar (Pyth); type: cell-based; settings: Globisporangium ultimum, 48 h, two days
Experimental: as §4, §5, §6

[10] = tested on: Plasmopara viticola; test: In vivo fungicidal activity, Grape Downy Mildew (GDM); settings: rate 400 ppm, rating, averaged
Experimental: as §1, §2, §3

[11] = tested on: Puccinia recondita, tritici; test: In vivo fungicidal activity, Wheat Leaf Rust (WLR); settings: rate 400 ppm, rating, averaged
Experimental: as §1, §2, §3

[12] = 10 ppm, contact, rating scale 0-9
[13] = 100 ppm, contact, rating scale 0-9
[14] = systemic uptake, rating scale 0-9
[15] = cut stem in emulsion 3 days, mortality rating after 2 days
[16] = spray, mortality rating after 2 days
[17] = 10 ppm, mortality rating after 2 days
[18] = 100 ppm, mortality rating after 2 days

`CCOC(=S)SCn1c(-c2ccc(Cl)c(Cl)c2)c(Br)c(C(F)(F)F)c1C(F)(F)F` [Example 35] was tested, and the “LEAFHOPPER Contact” value [1, 12] was 9 (100% kill), the “LEAFHOPPER Contact” value [1, 13] was 9 (100% kill) and the “LEAFHOPPER Systemic” value [2, 14] was 0. For the same compound, the APHIDS ([3]; rating scale 0-9) was 0.

With `CN(C)C(=S)SCn1c(-c2ccc(Cl)cc2)c(C#N)c(Cl)c1C(F)(F)F` [Example 21] the “TOBACCO BUDWORM 3rd Instar” value ([4]; 10 ppm) was 9 (100% kill), the “TOBACCO BUDWORM 3rd Instar” value ([4]; 100 ppm) was 9 (100% kill) and the “TOBACCO BUDWORM 3rd Instar” value ([4]; 1000 ppm) was 9 (100% kill). For the same compound, the “LEAFHOPPER Systemic” value [2, 15] was 0 and the APHIDS [3, 16] was 0.

With `CN(C)C(=S)SCn1c(-c2ccc(Cl)cc2)c(C#N)c(Br)c1C(F)(F)F` [Example 24] the “TOBACCO BUDWORM 3rd Instar” value ([4]; 10 ppm) was 0, the “TOBACCO BUDWORM 3rd Instar” value ([4]; 100 ppm) was 9 (100% kill) and the “TOBACCO BUDWORM 3rd Instar” value ([4]; 1000 ppm) was 9 (100% kill). The “LEAFHOPPER Contact” value [1, 17] was 0, the “LEAFHOPPER Contact” value [1, 18] was 9 (100% kill) and the “LEAFHOPPER Systemic” value [2, 15] was 0. For the same compound, the APHIDS [3, 16] was 7 (76-85% kill).

With `N#Cc1c(Br)c(Br)n(CSc2ccccc2)c1-c1ccc(C(F)(F)F)cc1` [Example 45, 4,5-dibromo-1-[(phenylthio)methyl]-2-(alpha, alpha,alpha-trifluoro-p-tolyl)pyrrole-3-carbonitrile] the “TOBACCO BUDWORM 3rd Instar” value ([4]; 100 ppm) was 0, the “TOBACCO BUDWORM 3rd Instar” value ([4]; 1000 ppm) was 0 and the “Disease Control SBC” value ([5]; rate 25 ppm) was 6.0. The “Disease Control SBC” value ([5]; rate 100 ppm) was 7.0, the “Disease Control SBC” value ([5]; rate 400 ppm) was 7.5 and the “Disease Control AS” value [6] was 0 (0). It also gave an inhibition at 1 ppm ([7]; rate 1 ppm in agar) of 0%, an inhibition at 10 ppm ([7]; rate 10 ppm in agar) of 3.5% and an inhibition at 25 ppm ([7]; rate 25 ppm in agar) of 2%. The “Disease Control WPM” value [8] was 1.0, the inhibition at 1 ppm ([9]; rate 1 ppm in agar) was 0% and the inhibition at 10 ppm ([9]; rate 10 ppm in agar) was 7%. For the same compound, the inhibition at 25 ppm ([9]; rate 25 ppm in agar) was 4.5%, the “Disease Control GDM” value [10] was 0 (0) and the “Disease Control WLR” value [11] was 6.0.

With `CC(C)OC(=S)SCn1c(-c2ccc(Cl)cc2)c(C#N)c(Br)c1C(F)(F)F` [Example 30] the “LEAFHOPPER Systemic” value [2, 14] was 0 and the APHIDS ([3]; rating scale 0-9) was 3 (36-45% kill).

`CCOC(=S)SCn1c(Cl)c(Cl)c(C#N)c1-c1ccc(Cl)c(Cl)c1` [Example 28] was tested, and the “TOBACCO BUDWORM 3rd Instar” value ([4]; 10 ppm) was 0, the “LEAFHOPPER Contact” value [1, 12] was 0 and the “LEAFHOPPER Contact” value [1, 13] was 9 (100% kill). The “LEAFHOPPER Systemic” value [2, 14] was 0 and the APHIDS ([3]; rating scale 0-9) was 0.

In the case of `N#Cc1c(Br)c(C(F)(F)F)n(CSC2=NCCN2)c1-c1ccc(Cl)cc1` [Example 7], the “LEAFHOPPER Systemic” value [2, 15] is reported as 0 and the APHIDS [3, 16] is reported as 0.

With `CN(C)C(=S)SCn1c(Cl)c(C#N)c(Cl)c1-c1ccc(Cl)c(Cl)c1` [Example 36] the “TOBACCO BUDWORM 3rd Instar” value ([4]; 10 ppm) was 0, the “TOBACCO BUDWORM 3rd Instar” value ([4]; 100 ppm) was 9 (100% kill) and the “TOBACCO BUDWORM 3rd Instar” value ([4]; 1000 ppm) was 9 (100% kill). The “LEAFHOPPER Contact” value [1, 13] was 6 (66-75% kill), the “LEAFHOPPER Systemic” value [2, 14] was 0 and the APHIDS ([3]; rating scale 0-9) was 0.

`CN=C(NC)SCn1c(Cl)c(C#N)c(Cl)c1-c1ccc(Cl)c(Cl)c1` [Example 19] was tested, and the “TOBACCO BUDWORM 3rd Instar” value ([4]; 10 ppm) was 0, the “TOBACCO BUDWORM 3rd Instar” value ([4]; 100 ppm) was 9 (100% kill) and the “TOBACCO BUDWORM 3rd Instar” value ([4]; 1000 ppm) was 9 (100% kill). For the same compound, the “LEAFHOPPER Contact” value [1, 12] was 0, the “LEAFHOPPER Contact” value [1, 13] was 9 (100% kill) and the “LEAFHOPPER Systemic” value [2, 14] was 0. It also gave an APHIDS ([3]; rating scale 0-9) of 0.

For `CCOC(=S)SCn1c(Cl)c(C#N)c(Cl)c1-c1ccc(Cl)c(Cl)c1` [Example 37], the “TOBACCO BUDWORM 3rd Instar” value ([4]; 10 ppm) was 0, the “TOBACCO BUDWORM 3rd Instar” value ([4]; 100 ppm) was 9 (100% kill) and the “TOBACCO BUDWORM 3rd Instar” value ([4]; 1000 ppm) was 9 (100% kill). For the same compound, the “LEAFHOPPER Contact” value [1, 13] was 6 (66-75% kill), the “LEAFHOPPER Systemic” value [2, 14] was 0 and the APHIDS ([3]; rating scale 0-9) was 0.

`CSCn1c(Br)c(Br)c(C#N)c1-c1ccc(C(F)(F)F)cc1` [Example 44] was tested, and the “TOBACCO BUDWORM 3rd Instar” value ([4]; 10 ppm) was 0, the “TOBACCO BUDWORM 3rd Instar” value ([4]; 100 ppm) was 0 and the “TOBACCO BUDWORM 3rd Instar” value ([4]; 1000 ppm) was 9 (100% kill). For the same compound, the “LEAFHOPPER Contact” value [1, 17] was 0, the “LEAFHOPPER Contact” value [1, 18] was 7 (76-85% kill) and the “LEAFHOPPER Systemic” value [2, 15] was 0. It also gave an APHIDS [3, 16] of 0.
